Experimental data: patent publication US11104683B2, “Thioglycoluril compound, and method for producing same” (NISSAN CHEMICAL CORPORATION, priority 2016, dated 2021)

Experiment: Solubility in solvents (PGME or PGMEA) commonly used in semiconductor device production
Type: physicochemical
Details: for Solubility (g/100 g-PGMEA): solvent propylene glycol 1-monomethyl ether 2-acetate (PGMEA); for Solubility (g/100 g-PGME): solvent propylene glycol 1-monomethyl ether (PGME)
Method: In order to examine the solubilities of TMOM-TGU produced in Example 2, TMOM-DTGU produced in Example 4, and TMOM-GU as Comparative Example, these compounds were dissolved in propylene glycol 1-monomethyl ether (PGME) or propylene glycol 1-monomethyl ether 2-acetate (PGMEA), each of which is a solvent commonly used in, for example, production processes for semiconductor devices.

## COCN1C(=O)N(COC)C2C1N(COC)C(=S)N2COC (stereo not shown) [Example 2, 1,3,4,6-tetrakis(methoxymethyl)monothioglycoluril]
Conclusion from Table 1 (PGME, PGMEA)
  solubility in a solvent (in words): particularly excellent solubility
  Solubility (g/100 g-PGMEA): 100 g/100 g-PGMEA
  Solubility (g/100 g-PGME): 100 g/100 g-PGME

## COCN1C(=O)N(COC)C2C1N(COC)C(=O)N2COC (stereo not shown) [Comparative Example, 1,3,4,6-tetrakis(methoxymethyl)glycoluril, reference compound]
  Solubility (g/100 g-PGMEA): 12.5 g/100 g-PGMEA
  Solubility (g/100 g-PGME): 20 g/100 g-PGME

## COCN1C(=S)N(COC)C2C1N(COC)C(=S)N2COC (stereo not shown) [Example 4, 1,3,4,6-tetrakis(methoxymethyl)dithioglycoluril]
  Solubility (g/100 g-PGMEA): 25 g/100 g-PGMEA
  Solubility (g/100 g-PGME): 20 g/100 g-PGME
